Legend:
Format in all cases: cell-based
[1] = molecular target: T1, Toll-like receptor 9 (Homo sapiens, UniProt Q9NR96); test: Antagonist activity at human TLR9 overexpressed in HEK-Blue cells assessed as inhibition of ODN2006-induced NFkappaB and AP-1 activation preincubated for 30 mins followed by ODN2006 stimulation measured after 22 hrs by quanti-blue SEAP assay
T1 sequence (Q9NR96 whole entry): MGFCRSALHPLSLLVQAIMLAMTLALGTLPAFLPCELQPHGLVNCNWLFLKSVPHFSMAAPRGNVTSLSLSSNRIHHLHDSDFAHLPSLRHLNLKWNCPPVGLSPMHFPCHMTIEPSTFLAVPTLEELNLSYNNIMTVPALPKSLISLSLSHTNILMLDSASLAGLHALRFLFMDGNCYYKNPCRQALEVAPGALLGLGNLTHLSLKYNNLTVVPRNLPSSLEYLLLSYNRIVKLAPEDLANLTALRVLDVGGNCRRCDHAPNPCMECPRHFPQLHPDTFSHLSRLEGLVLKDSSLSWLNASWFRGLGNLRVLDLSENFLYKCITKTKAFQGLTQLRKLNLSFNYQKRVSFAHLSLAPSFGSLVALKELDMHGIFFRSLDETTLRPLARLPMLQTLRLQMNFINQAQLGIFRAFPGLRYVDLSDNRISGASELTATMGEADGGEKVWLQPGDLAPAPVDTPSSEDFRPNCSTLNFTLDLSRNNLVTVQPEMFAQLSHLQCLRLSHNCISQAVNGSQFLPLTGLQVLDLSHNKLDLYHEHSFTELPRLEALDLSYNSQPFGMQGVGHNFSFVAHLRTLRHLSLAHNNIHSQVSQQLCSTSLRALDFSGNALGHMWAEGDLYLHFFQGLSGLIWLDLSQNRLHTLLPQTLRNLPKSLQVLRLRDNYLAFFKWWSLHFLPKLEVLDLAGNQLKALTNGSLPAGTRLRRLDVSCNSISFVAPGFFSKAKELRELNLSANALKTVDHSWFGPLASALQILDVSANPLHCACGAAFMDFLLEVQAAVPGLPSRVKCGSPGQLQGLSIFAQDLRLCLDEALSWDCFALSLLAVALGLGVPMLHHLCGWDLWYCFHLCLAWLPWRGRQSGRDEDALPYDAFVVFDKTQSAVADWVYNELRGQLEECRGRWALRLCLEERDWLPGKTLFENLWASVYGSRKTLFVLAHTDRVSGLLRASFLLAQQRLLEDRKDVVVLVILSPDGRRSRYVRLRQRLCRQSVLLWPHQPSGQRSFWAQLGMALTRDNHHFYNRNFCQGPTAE

[2] = molecular target: T2, Toll-like receptor 7 (Homo sapiens, UniProt Q9NYK1); test: Antagonist activity at human TLR7 overexpressed in HEK-Blue cells assessed as inhibition of gardiquimod-induced NFkappaB and AP-1 activation preincubated for 30 mins followed by gardiquimod stimulation measured after 22 hrs by quanti-blue SEAP assay
T2 sequence (Q9NYK1 whole entry): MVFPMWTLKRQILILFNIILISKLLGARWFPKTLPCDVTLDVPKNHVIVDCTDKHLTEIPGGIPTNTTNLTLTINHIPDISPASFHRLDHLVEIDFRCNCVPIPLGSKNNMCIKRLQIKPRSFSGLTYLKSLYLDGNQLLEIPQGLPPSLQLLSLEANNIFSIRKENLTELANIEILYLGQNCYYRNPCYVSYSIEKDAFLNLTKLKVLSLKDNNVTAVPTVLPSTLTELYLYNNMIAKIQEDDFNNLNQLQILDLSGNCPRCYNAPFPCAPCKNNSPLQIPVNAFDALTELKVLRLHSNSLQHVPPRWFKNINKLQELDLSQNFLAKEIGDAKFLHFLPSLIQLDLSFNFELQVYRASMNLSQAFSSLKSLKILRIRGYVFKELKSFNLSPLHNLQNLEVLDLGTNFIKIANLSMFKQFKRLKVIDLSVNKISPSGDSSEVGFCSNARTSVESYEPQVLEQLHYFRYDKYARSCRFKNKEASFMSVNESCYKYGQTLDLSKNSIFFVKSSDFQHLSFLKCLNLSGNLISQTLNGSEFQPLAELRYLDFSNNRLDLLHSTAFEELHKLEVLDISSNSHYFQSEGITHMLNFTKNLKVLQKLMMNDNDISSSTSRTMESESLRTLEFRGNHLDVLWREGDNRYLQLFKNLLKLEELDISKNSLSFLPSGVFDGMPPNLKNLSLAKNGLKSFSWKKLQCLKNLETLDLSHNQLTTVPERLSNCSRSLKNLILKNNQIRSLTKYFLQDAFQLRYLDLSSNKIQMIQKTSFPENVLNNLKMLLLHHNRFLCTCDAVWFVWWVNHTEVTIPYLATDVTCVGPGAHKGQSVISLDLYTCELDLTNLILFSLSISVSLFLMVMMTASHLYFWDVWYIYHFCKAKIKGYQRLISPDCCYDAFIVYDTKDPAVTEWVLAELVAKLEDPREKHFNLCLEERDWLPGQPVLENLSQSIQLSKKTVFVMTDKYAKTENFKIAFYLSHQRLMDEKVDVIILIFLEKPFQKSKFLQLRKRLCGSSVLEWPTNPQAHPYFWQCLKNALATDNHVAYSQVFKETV

[3] = molecular target: T3, Toll-like receptor 9 (Homo sapiens) (UniProt Q9NR96); test: Antagonist activity at human TLR9 overexpressed in HEK-Blue cells assessed as inhibition of ODN2006-induced NFkappaB and AP-1 activation at 10 uM preincubated for 30 mins followed by ODN2006 stimulation measured after 22 hrs by quanti-blue SEAP assay relative to control
T3 sequence (whole entry): T1 sequence (Q9NR96 whole entry)

[4] = molecular target: T4, Toll-like receptor 3 (Homo sapiens, UniProt O15455); test: Antagonist activity at human TLR3 overexpressed in HEK-Blue cells assessed as inhibition of Poly IC-induced NFkappaB and AP-1 activation preincubated for 30 mins followed by Poly IC stimulation measured after 22 hrs by quanti-blue SEAP assay
T4 sequence (O15455 whole entry): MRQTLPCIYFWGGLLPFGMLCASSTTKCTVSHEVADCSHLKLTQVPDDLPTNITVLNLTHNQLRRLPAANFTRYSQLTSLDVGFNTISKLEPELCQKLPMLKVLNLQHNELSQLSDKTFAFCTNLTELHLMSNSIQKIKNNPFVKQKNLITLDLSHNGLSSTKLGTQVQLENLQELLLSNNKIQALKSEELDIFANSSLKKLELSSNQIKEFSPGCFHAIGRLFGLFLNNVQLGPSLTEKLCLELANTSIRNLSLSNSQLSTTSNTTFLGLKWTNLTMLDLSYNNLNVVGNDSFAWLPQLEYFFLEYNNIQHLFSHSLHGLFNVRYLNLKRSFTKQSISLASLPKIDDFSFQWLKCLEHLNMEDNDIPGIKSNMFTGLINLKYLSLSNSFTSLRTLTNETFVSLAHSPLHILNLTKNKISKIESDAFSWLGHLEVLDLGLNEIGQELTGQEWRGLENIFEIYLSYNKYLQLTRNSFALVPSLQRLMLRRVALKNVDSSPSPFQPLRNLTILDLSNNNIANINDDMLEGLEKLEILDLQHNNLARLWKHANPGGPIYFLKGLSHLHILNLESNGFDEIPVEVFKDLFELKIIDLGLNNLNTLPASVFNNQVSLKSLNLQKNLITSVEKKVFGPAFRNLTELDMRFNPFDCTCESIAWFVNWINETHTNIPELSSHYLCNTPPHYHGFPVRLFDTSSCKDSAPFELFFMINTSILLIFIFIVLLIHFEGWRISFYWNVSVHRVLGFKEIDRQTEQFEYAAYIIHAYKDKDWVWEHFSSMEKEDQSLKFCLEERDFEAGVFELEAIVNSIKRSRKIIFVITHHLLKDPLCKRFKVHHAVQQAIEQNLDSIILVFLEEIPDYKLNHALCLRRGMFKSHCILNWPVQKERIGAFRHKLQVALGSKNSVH

[5] = molecular target: Toll-like receptor 4 (Homo sapiens, UniProt O00206); test: Antagonist activity at human TLR4 overexpressed in HEK-Blue cells assessed as inhibition of […] induced NFkappaB and AP-1 activation preincubated for 30 mins followed by […] stimulation measured after 22 hrs by quanti-blue SEAP assay
Sequence of Toll-like receptor 4 (O00206 whole entry): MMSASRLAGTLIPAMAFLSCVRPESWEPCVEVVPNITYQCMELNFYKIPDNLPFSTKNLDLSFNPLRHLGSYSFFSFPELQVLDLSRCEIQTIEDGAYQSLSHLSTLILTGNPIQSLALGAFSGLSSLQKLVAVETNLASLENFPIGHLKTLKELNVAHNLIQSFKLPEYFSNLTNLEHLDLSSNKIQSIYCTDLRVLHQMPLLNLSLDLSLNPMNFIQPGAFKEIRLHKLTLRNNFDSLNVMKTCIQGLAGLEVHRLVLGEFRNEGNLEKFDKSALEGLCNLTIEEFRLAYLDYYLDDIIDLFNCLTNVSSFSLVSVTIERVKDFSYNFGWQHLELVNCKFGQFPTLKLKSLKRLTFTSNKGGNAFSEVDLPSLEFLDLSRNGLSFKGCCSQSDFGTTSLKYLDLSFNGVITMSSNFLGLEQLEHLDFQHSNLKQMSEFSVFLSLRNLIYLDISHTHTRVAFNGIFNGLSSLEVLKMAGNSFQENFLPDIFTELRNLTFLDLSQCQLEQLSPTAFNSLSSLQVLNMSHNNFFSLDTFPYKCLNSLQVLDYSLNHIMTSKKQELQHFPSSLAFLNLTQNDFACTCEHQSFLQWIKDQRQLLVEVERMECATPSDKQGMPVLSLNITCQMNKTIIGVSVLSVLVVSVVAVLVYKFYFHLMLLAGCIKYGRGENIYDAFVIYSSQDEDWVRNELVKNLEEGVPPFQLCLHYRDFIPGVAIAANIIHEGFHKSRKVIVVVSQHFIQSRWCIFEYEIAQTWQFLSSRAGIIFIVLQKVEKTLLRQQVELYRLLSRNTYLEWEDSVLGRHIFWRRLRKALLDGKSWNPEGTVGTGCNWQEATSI

| SMILES | IC50 [1] | IC50 [2] | other results |
| --- | --- | --- | --- |
| COc1ccc(-c2[nH]c3ccc(C4CCN(Cc5ccncc5)CC4)cc3c2C)cc1OC | 3360 nM |  |  |
| CCOc1cc(-c2[nH]c3ccc(C4CCN(CCNC)CC4)cc3c2C)ccc1OC(C)C | 1660 nM |  |  |
| CNCCN1CCC(c2ccc3[nH]c(-c4ccc(C(N)=O)cc4)c(C)c3c2)CC1 | 270 nM | 16600 nM |  |
| COc1ccc(-c2[nH]c3ccc(C4CCN(C5CCN(C)CC5)CC4)cc3c2C)cc1OC |  | 730 nM |  |
| CNCCN1CCC(c2ccc3[nH]c(-c4ccccc4C#N)c(C)c3c2)CC1 | 600 nM | > 10000 nM |  |
| CNCCN1CCC(c2ccc3[nH]c(-c4cccc(OC)c4)c(C)c3c2)CC1 | 1870 nM | 6170 nM |  |
| CNCCN1CCC(c2ccc3[nH]c(-c4ccccc4OC)c(F)c3c2)CC1 | 23300 nM | 610 nM | inhibition [3]: < 5% |
| CNCCN1CCC(c2ccc3[nH]c(-c4ccccc4Cl)c(F)c3c2)CC1 | 21700 nM |  |  |
| COc1ccc(-c2[nH]c3ccc(C4CCN(Cc5cnc(C)[nH]5)CC4)cc3c2C)cc1OC |  | 3490 nM |  |
| CNCCCN1CCC(c2ccc3[nH]c(-c4ccc(OC)c(OC)c4)c(C)c3c2)CC1 | 550 nM | 790 nM |  |
| CNCCN1CCC(c2ccc3[nH]c(-c4ccc(C#N)cc4)c(C)c3c2)CC1 | 520 nM |  |  |
| CNCCN1CCC(c2ccc3[nH]c(-c4ccccc4C)c(C)c3c2)CC1 | 2140 nM | > 10000 nM |  |
| COc1ccc(-c2[nH]c3ccc(C4CCN(CC5CCCCN5C)CC4)cc3c2C)cc1OC (stereo not given) | 740 nM | 850 nM |  |
| CNCCN1CCC(c2ccc3[nH]c(-c4ccc(OC)c(OC)c4)c(C)c3c2)CC1 | 430 nM | 250 nM | IC50 [4]: 2160 nM; IC50 [5]: 15000 nM |
| CNCCN1CCC(c2ccc3[nH]c(-c4cccc(C)c4)c(C)c3c2)CC1 | 2620 nM | > 10000 nM |  |
| CNCCN1CCC(c2ccc3[nH]c(-c4ccc(OC)c(OC)c4)c(CC(F)(F)F)c3c2)CC1 | 750 nM | 70 nM |  |

| SMILES | IC50 [1] | IC50 [2] | other results |
| --- | --- | --- | --- |
| COc1ccc(-c2[nH]c3ccc(C4CCNCC4)cc3c2C)cc1OC | 4850 nM |  |  |
| CNCCN1CCC(c2ccc3[nH]c(-c4cccc(C#N)c4)c(C)c3c2)CC1 | 460 nM | > 10000 nM |  |
| CNCCN1CCC(c2ccc3[nH]c(-c4ccc5c(c4)OCO5)c(C)c3c2)CC1 | 1200 nM | 650 nM |  |
| CNCCN1CCC(c2ccc3[nH]c(-c4ccccc4)c(C)c3c2)CC1 | 1800 nM | > 10000 nM |  |
| COc1ccc(-c2[nH]c3ccc(C4CCN(C(C)=O)CC4)cc3c2C)cc1OC | > 50000 nM | 1310 nM |  |
| COc1ccc(-c2[nH]c3ccc(C4CCN(C5CNC5)CC4)cc3c2C)cc1OC | 2340 nM |  |  |
| COc1ccc(-c2[nH]c3ccc(C4CCN(Cc5cncn5C)CC4)cc3c2C)cc1OC | 2710 nM | 920 nM |  |
| COc1ccc(-c2[nH]c3ccc(C4CCN(Cc5nccn5C)CC4)cc3c2C)cc1OC | 850 nM |  |  |
| CNCCN1CCC(c2ccc3[nH]c(-c4ccccc4OC)c(C)c3c2)CC1 | 1100 nM | > 10000 nM |  |
| CNCCN1CCC(c2ccc3[nH]c(-c4ccc(OC)cc4)c(C)c3c2)CC1 | 500 nM | 5460 nM |  |
| CNCCN1CCC(c2ccc3[nH]c(-c4cccc(OC)c4OC)c(C)c3c2)CC1 | 2200 nM | > 10000 nM |  |
| CNCCN1CCC(c2ccc3[nH]c(-c4ccc(C)cc4)c(C)c3c2)CC1 | 5390 nM | > 10000 nM |  |
| CNCCN1CCC(c2ccc3[nH]c(-c4ccc(OC)cc4OC)c(C)c3c2)CC1 | 2330 nM | > 10000 nM |  |
| CNCCN1CCC(c2ccc3[nH]c(-c4ccc(OC)c(OC)c4)c(C#N)c3c2)CC1 |  | > 10000 nM |  |
| CNCCN1CCC(c2ccc3[nH]c(-c4ccc(OC)c(OC)c4)c(Cl)c3c2)CC1 | 430 nM |  |  |
| CCc1c(-c2ccc(OC)c(OC)c2)[nH]c2ccc(C3CCN(CCNC)CC3)cc12 |  | 130 nM |  |

Source: ChEMBL document CHEMBL4619828, “Discovery of Potent and Orally Bioavailable Small Molecule Antagonists of Toll-like Receptors 7/8/9 (TLR7/8/9)” (ACS Med Chem Lett, 2020)
